Measurements reported in patent US10894808B2, “Polypeptide ligands specific for plasma kallikrein” (BicycleRD Limited, priority 2013, dated 2021).
Like-named read-outs stand apart in the source and are kept apart here. *1 amine or outer side, *2 acyl side, *3 side chain or, on linkers, in order; H or OH if unused. Where a SMILES comes first, the peptide text is derived from it. Bridges are numbered along the chain shown (N, C = ends). [ ]: non-standard residue; d: D form. TBMB = c1c(C[*:1])cc(C[*:3])cc1C[*:2]; hArg = N=C(N)NCCCC[C@H](N)C(=O)O; Aze = O=C(O)[C@@H]1CCN1

Columns and labels:
[1] = Plasma stability profiling Method #2 (95% plasma, MALDI-TOF), human plasma; type: in vitro ADME; details: qualitative, sampled up to 46 hrs
Procedure: (§1) To obtain stability data more rapidly, peptides were also assessed in 95% plasma. Here, PBS was omitted, and a 1-5 mM peptide stock (in DMSO) was directly diluted into plasma (i.e. 2.5 μL stock into 47.5 μL plasma), giving a final concentration of 50 μM. 5 μL samples were taken at appropriate time points and frozen at −80° C. For analysis, the samples were defrosted, mixed with 25 μL of 3:3:1 acetonitrile:methanol:water, and centrifuged at 13 k for 5 min. 5 μL of the peptide-containing supernatant was aspirated and mixed with 30 mM ammonium bicarbonate in a 1:1 mixture of acetonitrile:H2O. 1 μL of this was then spotted on the MALDI plate and analysed as described above. As above, it should be noted that this is a qualitative assay serves to detect relative changes in plasma stability.

[2] = Plasma stability profiling Method #2 (95% plasma, MALDI-TOF), rat plasma; type: in vitro ADME; details: qualitative, sampled up to 46 hrs
Procedure: as §1

[3] = molecular target: rabbit kallikrein (Oryctolagus cuniculus, UniProt G1T127); test: Functional enzyme assay, inhibition of rabbit kallikrein; type: biochemical; details: read-out: Rabbit (Ki)
rabbit kallikrein, sequence (G1T127 20-629): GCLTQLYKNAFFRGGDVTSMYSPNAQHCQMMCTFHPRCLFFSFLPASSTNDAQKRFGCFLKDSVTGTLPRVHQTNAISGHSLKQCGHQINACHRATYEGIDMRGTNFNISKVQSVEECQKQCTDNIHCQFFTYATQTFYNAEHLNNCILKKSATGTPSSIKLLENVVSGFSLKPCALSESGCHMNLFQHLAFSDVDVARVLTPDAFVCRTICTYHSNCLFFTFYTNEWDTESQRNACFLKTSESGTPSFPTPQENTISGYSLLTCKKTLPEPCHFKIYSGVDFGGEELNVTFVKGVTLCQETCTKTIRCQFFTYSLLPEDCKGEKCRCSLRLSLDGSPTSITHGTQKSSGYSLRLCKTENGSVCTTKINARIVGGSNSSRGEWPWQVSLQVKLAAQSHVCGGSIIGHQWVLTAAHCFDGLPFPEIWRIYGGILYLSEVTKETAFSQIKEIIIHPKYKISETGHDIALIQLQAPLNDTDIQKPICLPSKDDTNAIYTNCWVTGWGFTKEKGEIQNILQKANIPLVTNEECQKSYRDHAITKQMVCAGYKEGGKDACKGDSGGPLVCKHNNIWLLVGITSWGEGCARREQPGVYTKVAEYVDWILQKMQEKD
Procedure: (§2) Functional enzyme assays were conducted in 10 mM Tris HCl, 150 mM NaCl, 10 mM MgCl2, 1 mM CaCl2 and 1 mg/mL BSA (all Sigma UK) pH 7.4 at 25° C. in solid black 96 or 384 well plates. […] Release of AMC was measured using a Pherastar FS (BMG Labtech), excitation 360 nm, emission 460 nm. The rate of the linear phase of the reaction, typically 5 to 45 minutes, was calculated in MARS data analysis software (BMG labtech). The rate was then used to calculate the IC50 and Ki in Prism (GraphPad). A four parameter inhibition non-linear regression equation was used to calculate the IC50. […]
(§3) Peptides were dissolved as the TFA-salts in their powder form, and stock solutions were usually prepared in water. All solutions were centrifuged and filtered ([…] syringe filters) prior to absorption measurement at 280 nm. Extinction coefficients were calculated based on the Trp/Tyr content of the peptide, and that of TMB (the TMB core, when contained in a peptide, has an extinction coefficient of ˜300 M^−1 cm^−1).

[4] = molecular target: T1, human plasma kallikrein (Homo sapiens, UniProt P03952); test: Functional enzyme assay, inhibition of human plasma kallikrein (Z-PheArg-AMC substrate); type: biochemical
T1 construct: purchased Stratech, UK
T1 sequence (P03952 391-638 limits assumed): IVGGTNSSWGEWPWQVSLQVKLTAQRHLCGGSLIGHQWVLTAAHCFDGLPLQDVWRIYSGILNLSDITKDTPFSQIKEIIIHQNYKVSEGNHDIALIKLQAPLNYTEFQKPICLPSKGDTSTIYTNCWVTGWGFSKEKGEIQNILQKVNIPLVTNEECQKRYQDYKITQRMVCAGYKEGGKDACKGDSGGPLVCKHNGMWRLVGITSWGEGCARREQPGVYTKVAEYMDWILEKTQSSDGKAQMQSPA
T1 sequence (P03952 20-390 partner limits assumed): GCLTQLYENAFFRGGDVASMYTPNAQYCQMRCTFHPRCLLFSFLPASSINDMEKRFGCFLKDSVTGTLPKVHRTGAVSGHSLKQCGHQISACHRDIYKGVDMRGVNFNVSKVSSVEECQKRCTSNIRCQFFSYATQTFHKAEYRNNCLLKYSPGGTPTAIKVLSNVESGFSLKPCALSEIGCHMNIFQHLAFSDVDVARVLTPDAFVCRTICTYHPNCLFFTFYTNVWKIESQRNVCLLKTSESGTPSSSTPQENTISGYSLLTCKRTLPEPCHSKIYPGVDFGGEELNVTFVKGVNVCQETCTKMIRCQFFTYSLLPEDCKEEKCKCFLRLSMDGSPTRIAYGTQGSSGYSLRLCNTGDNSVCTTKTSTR
Procedure: as §2, §3

[5] = molecular target: T2, rat plasma kallikrein (Rattus norvegicus, UniProt P14272); test: Functional enzyme assay, inhibition of rat plasma kallikrein (Z-PheArg-AMC substrate); type: biochemical
T2 construct: polyhistidine tag followed by proTEV cleavage site (pro-peptide) (N, cleaved yes); made in house; host or cells: HEK-293 (suspension-adapted), pEXPR-IBA42 vector
T2 sequence (P14272 391-638 limits assumed): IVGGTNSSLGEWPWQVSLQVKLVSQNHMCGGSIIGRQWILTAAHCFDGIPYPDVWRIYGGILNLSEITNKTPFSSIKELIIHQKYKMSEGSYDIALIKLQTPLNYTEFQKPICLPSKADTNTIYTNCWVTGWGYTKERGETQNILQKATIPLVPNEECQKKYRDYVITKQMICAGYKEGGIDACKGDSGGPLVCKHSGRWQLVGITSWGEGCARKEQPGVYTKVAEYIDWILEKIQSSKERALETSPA
Procedure: as §2, §3

[6] = molecular target: T3, biotinylated human plasma kallikrein (Homo sapiens, UniProt P03952); test: Homogeneous plate-based screening assay of TBMB-cyclised phage clones (signal:background); type: binding
T3 construct: The human kallikrein is non-recombinant and therefore the heavy chain is present; purchased Innovative Research, Novi, Mich., USA IHPKA; host or cells: from human plasma
T3 sequence (P03952 391-638 limits assumed): as the sequence (P03952 391-638 limits assumed) above
T3 sequence (P03952 20-390 partner limits assumed): as the sequence (P03952 20-390 partner limits assumed) above
Procedure: Assay of binding of individual clones: Library transformant colonies were picked at random and grown as individual cultures in 2TY broth containing selective antibiotic. The picked colonies were DNA-sequenced using a QIAgen PyroMark Q96 DNA sequencer to reveal the amino-acid substitution present in each clone. Where isolated, a clone of each unique substitution was assayed for human plasma kallikrein binding as follows. The phage-containing supernatant was harvested from the culture and phage were cyclised with tris bromomethyl benzene (TBMB) based on the methods of Heinis et al (Nature Chemical Biology vol. 5 pp 502-507 (2009)). The purified phage from this process were assayed for binding to biotinylated human plasma kallikrein using a homogeneous plate-based binding assay; assay read-out measured on a BMG Labtech Pherastar FS plate reader. The quantitative binding data from triplicate assay samples was averaged (mean) and expressed as signal:background (where background was a sample assayed with no target material). The signal:background was expressed as a % of the parallel parent sample. Error bars denote standard deviation of the mean. Assays shown are representative of at least 2 independent experiments. The assay data was correlated with the peptide sequences. Substitutions marked in grey were not tested (a clone was not isolated from the random library sampling). A sample of a non-binding (arbitrary) bicycle was assayed in parallel to illustrate the assay baseline.
Assay of binding of individual clones: Library transformant colonies, or selection output colonies, were picked and grown as individual cultures in 2TY broth containing selective antibiotic. The picked colonies were DNA-sequenced using a QIAgen PyroMark Q96 DNA sequencer to reveal the amino-acid substitution present in each clone, and were assayed for human plasma kallikrein binding as follows. The phage-containing supernatant was harvested from the culture and phage were cyclised with tris-bromomethylbenzene (TBMB) based on the methods of Heinis et al (Nature Chemical Biology vol. 5 pp 502-507 (2009)). The purified phage from this process were assayed for binding to biotinylated human plasma kallikrein using a homogeneous plate-based binding assay; assay read-out measured on a BMG Labtech Pherastar FS plate reader. The quantitative binding data from duplicate assay samples was averaged (mean) and expressed as signal:background. Assay data shown is representative of at least 2 independent experiments. The assay data was correlated with the peptide sequences.

[7] = Aqueous solubility (qualitative); type: physicochemical; details: in words
[8] = Table 1, synthetic peptides, read-out: Human (Ki)
[9] = Table 1, synthetic peptides, read-out: Rat (Ki)
[10] = Table 3, 06-254 affinity-matured library
[11] = Table 4, 06-259 affinity-matured library

| SMILES | Ki ([3]; Table 1, synthetic peptides) | Ki ([3]; Table 5) | Ki [4, 8] | Ki [5, 9] | S:B (Signal:Background) [6, 11] | also measured |
| --- | --- | --- | --- | --- | --- | --- |
| CC(C)C[C@@H]1NC(=O)[C@H](CC(=O)O)NC(=O)[C@H](CCC(N)=O)NC(=O)[C@H](Cc2c[nH]cn2)NC(=O)[C@H](CC(C)C)NC(=O)[C@@H]2CSCc3cc(cc(c3)CSC[C@H](N)C(=O)N[C@@H](CO)C(=O)N[C@@H](Cc3c[nH]c4ccccc34)C(=O)N3CCC[C@H]3C(=O)N[C@@H](C)C(=O)N[C@@H](CCCNC(=N)N)C(=O)N2)CSC[C@@H](C(N)=O)NC1=O [06-34-18, reference compound] (H-CSWPARCLHQDLC-NH2; linker 1-7-13 via TBMB; N-terminus and C-terminus assumed) | – | – | – | – | – | comparative stability in human plasma [1]: largely disappeared; comparative stability in rat plasma [2]: largely disappeared |
| CC[C@H](C)[C@@H]1NC(=O)[C@@H]2CCCN2C(=O)[C@@H]2CCCN2C(=O)[C@H](CC(=O)O)NC(=O)[C@H](C)NC(=O)[C@H](CO)NC(=O)[C@@H]2CSCc3cc(cc(c3)CSC[C@@H](C(=O)N[C@@H](C)C(N)=O)NC1=O)CSC[C@H](NC(=O)[C@H](C)N)C(=O)N[C@@H](CC(N)=O)C(=O)N[C@@H](Cc1c[nH]cn1)C(=O)N[C@@H](Cc1c[nH]c3ccccc13)C(=O)N[C@@H](CC(N)=O)C(=O)N1CCC[C@H]1C(=O)N[C@@H](Cc1c[nH]c3ccccc13)C(=O)N2 [06-259-03] (H-ACNHWNPWCSADPPICA-NH2; linker 2-9-16 via TBMB; N-terminus and C-terminus assumed) | – | – | – | – | 49.82 | Ki ([4]; Table 5, read-out: Human (Ki)): 1.4 nM; Ki ([5]; Table 5, read-out: Rat (Ki)): 8.2 nM |
| CC[C@H](C)[C@@H]1NC(=O)[C@H](CC(=O)O)NC(=O)[C@@H]2CCCN2C(=O)[C@H](Cc2ccc(O)cc2)NC(=O)[C@H](Cc2ccc(O)cc2)NC(=O)[C@H](C(C)C)NC(=O)[C@@H]2CSCc3cc(cc(c3)CSC[C@H](N)C(=O)N[C@@H](CO)C(=O)N[C@@H](Cc3ccccc3)C(=O)N3CC[C@H]3C(=O)N[C@@H](Cc3ccc(O)cc3)C(=O)N[C@@H](CCCCNC(=N)N)C(=O)N2)CSC[C@@H](C(N)=O)NC1=O [06-550 Aze3 HArg5, -Ci-S-F-[Aze]-Y-[hR]-Cii-V-Y-Y-P-D-I-Ciii-] (H-CSF[Aze]Y[hArg]CVYYPDIC-NH2; linker 1-7-14 via TBMB; N-terminus and C-terminus assumed) | – | – | – | – | – | aqueous solubility [7]: significantly reduced aqueous solubility |

The next lines start with results.

| Ki ([3]; Table 1, synthetic peptides) | Ki ([3]; Table 5) | Ki [4, 8] | Ki [5, 9] | S:B (Signal:Background) [6, 11] | SMILES | also measured |
| --- | --- | --- | --- | --- | --- | --- |
| 280 nM | 280 nM | 5.3 nM | 42.5 nM | – | CC[C@H](C)[C@@H]1NC(=O)[C@H]([C@@H](C)O)NC(=O)[C@H](C(C)C)NC(=O)[C@H](CC(C)C)NC(=O)[C@H](CC(=O)O)NC(=O)[C@@H]2CSCc3cc(cc(c3)CSC[C@@H](C(=O)N[C@@H](C)C(N)=O)NC(=O)[C@H](CO)NC1=O)CSC[C@H](NC(=O)[C@H](C)N)C(=O)N[C@@H](CCCCN)C(=O)N[C@@H](CC(N)=O)C(=O)N[C@@H](Cc1ccc(O)cc1)C(=O)N[C@@H](Cc1c[nH]c3ccccc13)C(=O)N[C@@H](CC(N)=O)C(=O)N1CCC[C@H]1C(=O)N2 [06-254] (H-ACKNYWNPCDLVTISCA-NH2; linker 2-9-16 via TBMB; N-terminus assumed) | S:B (Signal:Background) [6, 10]: 23.48 |
| 331 nM | 331 nM | 4.3 nM | 5.2 nM | – | CC(C)C[C@@H]1NC(=O)[C@H](CC(N)=O)NC(=O)[C@H](CCC(=O)O)NC(=O)[C@H](Cc2c[nH]cn2)NC(=O)[C@H](CC(C)C)NC(=O)[C@@H]2CSCc3cc(cc(c3)CSC[C@H](NC(=O)[C@H](C)N)C(=O)N3CCC[C@H]3C(=O)N[C@@H](Cc3ccc(O)cc3)C(=O)N3CCC[C@H]3C(=O)N[C@@H](Cc3ccccc3)C(=O)N[C@@H](CCCNC(=N)N)C(=O)N2)CSC[C@@H](C(=O)N[C@@H](C)C(N)=O)NC1=O [06-258] (H-ACPYPFRCLHENLCA-NH2; linker 2-8-14 via TBMB; N-terminus and C-terminus assumed) | – |
| – | – | 20.1 nM | 6.2 nM | 1.17 | CC(C)[C@@H]1NC(=O)[C@H](Cc2c[nH]c3ccccc23)NC(=O)CNC(=O)[C@@H]2CSCc3cc(cc(c3)CSC[C@@H](C(=O)N[C@@H](C)C(N)=O)NC(=O)[C@H](Cc3ccccc3)NC(=O)CNC(=O)CNC1=O)CSC[C@H](NC(=O)[C@H](C)N)C(=O)N[C@@H](CC(N)=O)C(=O)N[C@@H]([C@@H](C)O)C(=O)N[C@@H](Cc1c[nH]c3ccccc13)C(=O)N[C@@H](CC(N)=O)C(=O)N1CCC[C@H]1C(=O)N[C@@H](Cc1c[nH]c3ccccc13)C(=O)N2 [06-259] (H-ACNTWNPWCGWVGGFCA-NH2; linker 2-9-16 via TBMB; N-terminus and C-terminus assumed) | – |
| 1040 nM | 1040 nM | 0.4 nM | 4 nM | – | CC[C@H](C)[C@@H]1NC(=O)[C@H](CC(=O)O)NC(=O)[C@@H]2CCCN2C(=O)[C@H](Cc2ccc(O)cc2)NC(=O)[C@H](Cc2ccc(O)cc2)NC(=O)[C@H](C(C)C)NC(=O)[C@@H]2CSCc3cc(cc(c3)CSC[C@@H](C(=O)N[C@@H](C)C(N)=O)NC1=O)CSC[C@H](NC(=O)[C@H](C)N)C(=O)N[C@@H](CC(N)=O)C(=O)N[C@@H](CC(N)=O)C(=O)N[C@@H](Cc1ccccc1)C(=O)N1CCC[C@H]1C(=O)N[C@@H](Cc1ccccc1)C(=O)N[C@@H](CCCNC(=N)N)C(=O)N2 [06-261] (H-ACNNFPFRCVYYPDICA-NH2; linker 2-9-16 via TBMB; N-terminus assumed) | – |
| – | – | – | – | 14.05 | CC(C)C[C@@H]1NC(=O)[C@H](C)NC(=O)[C@H](CCC(=O)O)NC(=O)[C@H](CC(=O)O)NC(=O)[C@H](C)NC(=O)[C@@H]2CCCN2C(=O)[C@@H]2CSCc3cc(cc(c3)CSC[C@@H](C(=O)NCC(N)=O)NC1=O)CSC[C@H](NC(=O)[C@H](C)N)C(=O)N[C@@H](CO)C(=O)N[C@@H](CC(=O)O)C(=O)N[C@@H](CCCNC(=N)N)C(=O)N[C@@H](Cc1ccccc1)C(=O)N[C@@H](CCCNC(=N)N)C(=O)N[C@@H](CC(N)=O)C(=O)N2 [PK15, reference compound] (H-ACSDRFRNCPADEALCG-NH2; linker 2-9-16 via TBMB (inferred); N-terminus and C-terminus assumed) | Ki ([4]; text b212, read-out: Ki to human kallikrein): ~1.2 nM; Ki ([5]; text b212, read-out: Ki to rat kallikrein): ~500 nM; S:B (Signal:Background) [6, 10]: 14.05 |
